Source: paper PMC3463587, “A Series of Beta-Carboline Derivatives Inhibit the Kinase Activity of PLKs” (PLoS ONE, 2012)

Experiments:
[1] = system: MRC5 cells; conditions: read-out: IC50 MRC5; MTT, 48 hr, non-cancer cells
Protocol: All the beta-carboline derivatives were provided by Xinjiang Huashidan Pharmaceutical Co. Ltd. The culture media and fetal bovine serum (FBS) were purchased from Hyclone (Hyclone Laboratories Inc., USA). […] All the cell lines were obtained from the Cell Culture Centre, Institute of Basic Medical Science, Chinese Academy of Medical Science and incubated at 37°C supplied with 5% CO2. HeLa cells were grown in standard DMEM with 10% FBS.
MRC5, HeLa, HepG2, PC3 and MG63 cells were seeded at 3000–6000 cells/well (200 µl/well) in a 96-well plate and incubated overnight. Then different concentrations of compounds were added into the cell cultures with a final concentration of 0.1% DMSO and incubated for an additional 48 hr. After that, 22 µl MTT solution (5 mg/ml) was added into each well and incubated at 37°C for 4 hr.

[2] = molecular target: T1, Aurora-A (Homo sapiens, UniProt O14965); test: In vitro kinase assay Aurora A; assay type: biochemical
T1 sequence (O14965 1-403): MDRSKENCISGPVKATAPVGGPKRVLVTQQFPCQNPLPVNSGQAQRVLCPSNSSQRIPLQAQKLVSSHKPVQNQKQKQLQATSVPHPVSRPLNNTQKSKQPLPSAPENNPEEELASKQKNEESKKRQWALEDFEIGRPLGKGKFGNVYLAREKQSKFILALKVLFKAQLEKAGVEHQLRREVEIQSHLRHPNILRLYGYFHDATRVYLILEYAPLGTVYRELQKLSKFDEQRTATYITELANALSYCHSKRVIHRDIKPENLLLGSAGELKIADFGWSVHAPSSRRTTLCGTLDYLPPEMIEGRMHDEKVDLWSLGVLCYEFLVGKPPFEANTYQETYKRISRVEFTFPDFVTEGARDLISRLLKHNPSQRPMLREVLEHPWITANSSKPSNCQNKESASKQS
Protocol: The inhibition of PLK1 kinase activity was assessed using the Cyclex PLK1 Assay/Inhibitor Screening Kit (MBL International Corporation, Japan). The kit includes anti-phospho-threonine polyclonal antibody (PPT-07) and peroxidase coupled anti-rabbit IgG antibody as a reporter in a 96-well ELSIA format. Compounds were used at the concentrations from 10^− ^3 to 10^2 µg/ml and the absorbance was determined at 450 nm. A similar protocol was used to determine the kinase inhibition for PLK2, PLK3, Aurora A and Aurora B. The kinase activity of CDK1/cyclinB and CDK2/cyclinE was analyzed in the presence of serially diluted inhibitors. For each reaction, 20 ng of recombinant kinase was used and […] casein from bovine milk (Sigma) was added as the kinase substrate. The kinase reaction buffer contains 8 mM MOPS pH7.0, 0.2 mM EDTA, 0.1 mg/ml histone H1, 10 mM and MgAcetace and [γ^− ^33P-ATP] (500 cpm/pmol). The reaction was initiated by adding the MgATP mix. After incubation for 40 minutes at room temperature, the reaction was stopped by the addition of 3% phosphoric acid solution. We spotted 10 µl of the reaction mixture onto a P30 filtermat and washed three times for 5 min with 75 mM phosphoric acid and once with methanol prior to drying and scintillation counting.

[3] = system: MRC5 cells; test: FITC-Annexin V/PI apoptosis assay, MRC5; assay type: cell-based, Human; conditions: 48 hr
Excerpt: Staining with Annexin V–FITC and propidium iodide (PI) is commonly used to distinguish apoptotic, necrotic, and dead cells. PI is impermeant to live cells and apoptotic cells at early stages, but it stains dead cells and apoptotic cells at late stages through its binding to the nucleic acids. Apoptotic cells in early or late stages are stained positively for Annexin V-FITC that binds to phosphotidylserine. We used FACS analysis to determine the proportion of HeLa cells positive for Annexin V-FITC (FITC), PI, or both. The HeLa cells with PI^−/PI^+ FITC^+ were counted as apoptotic cells (Figure 5). […] However, 16.19% (3.96+12.23) of HeLa cells became FITC positive after treatment with 1.05 µM DH281 for 48 hr. The treatment with 5.25 µM DH281 induced apoptosis among 89.6% (89.51+0.09) of HeLa cells (Table 5). […] In contrast to HeLa cells, the induction of apoptosis by DH281 was much less efficient in non-cancer MRC5 cells (Table 5). Therefore, we conclude that the treatment with compounds DH281, DH285 and DH287 induces substantial apoptosis in HeLa cells, but non-cancer MRC5 cells are much less sensitive to the treatment. The distinct apoptotic responses of HeLa and MRC5 cells to beta-carboline compounds could explain the selectivity of PLK1 inhibitors toward cancer cells.
HeLa cells were either treated with 0, 0.21, 1.05 and 5.25 µM of DH281, DH285 and DH287 for 48 hr, or treated with 1.21 µM compounds for 24, 48 and 72 hr, while MRC5 cells were exposed to compounds at 0, 0.21, 1.05, and 5.25 µM for 48 hr. The cultured cells were harvested, washed three times with PBS, and resuspended in 500 µl binding buffer (10 mM Hepes/sodium hydroxide (pH7.4), 140 mM sodium chloride, and 2.5 mM CaCl2). Then 5 µl FITC-labeled Annexin V (Zhongshan JinQiao Biotechnology Ltd., Beijing) was added and the cells were incubated in the dark for 10 min. We added 5 µl of propidium iodide (PI) (10 µg/ml in binding buffer) to each sample before flow cytometry analysis.

For Cc1c2c(cc[n+]1Cc1ccccc1)c1ccc(OCc3ccccc3)cc1n2Cc1ccccc1 [DH287], which IC50 [1] is on record?
Its IC50 is 3.06 ± 0.69 µM.

What about the IC50 [2] of the same compound?
Its IC50 is 22.6 µM.

Cc1c2c(cc[n+]1Cc1ccccc1)c1ccc(OCc3ccc(F)cc3)cc1n2CCCc1ccccc1 [DH281] was tested. Which “PI+ FITC+ (late apoptotic cells)” value ([3]; MRC5, 0.21 µM) did it give?
Its value is 5.07%.

And the “PI+ FITC− (dead cells)” value ([3]; MRC5, 0.21 µM)?
The value was 1.63%.

What about the “PI− FITC− (live cells)” value ([3]; MRC5, 0.21 µM) of the same compound?
Its value is 92.4%.

What about the “PI+ FITC+ (late apoptotic cells)” value ([3]; MRC5, 1.05 µM) of the same compound?
The value was 0.59%.

And the “PI+ FITC− (dead cells)” value ([3]; MRC5, 1.05 µM)?
Its value is 0.01%.

What about the “PI− FITC+ (early apoptotic cells)” value ([3]; MRC5, 1.05 µM) of the same compound?
The value was 13.3%.

And the “PI− FITC− (live cells)” value ([3]; MRC5, 1.05 µM)?
Its value is 86.1%.

And the “PI+ FITC+ (late apoptotic cells)” value ([3]; MRC5, 5.25 µM)?
Its value is 7.76%.

And the “PI+ FITC− (dead cells)” value ([3]; MRC5, 5.25 µM)?
Its value is 10.5%.

And the “PI− FITC+ (early apoptotic cells)” value ([3]; MRC5, 5.25 µM)?
The value was 18.5%.

What about the “PI− FITC− (live cells)” value ([3]; MRC5, 5.25 µM) of the same compound?
Its value is 63.2%.
